≈ marks a conversion by molar mass, not a printed value.
Columns and labels:
[1] = system: CC1(C)S[C@@H]2[C@H](NC(=O)[C@H](N)c3ccccc3)C(=O)N2[C@H]1C(=O)O; experiment: (§1) Activity of Acinetobacter baumannii ADC-33 beta-lactamase
[2] = system: CC(=O)OCC1=C(C(=O)O)N2C(=O)[C@@H](NC(=O)Cc3cccs3)[C@H]2SC1; experiment: as §1
[3] = system: CO/N=C(\C(=O)N[C@@H]1C(=O)N2C(C(=O)[O-])=C(C[n+]3cccc4c3CCC4)CS[C@H]12)c1csc(N)n1; experiment: as §1
[4] = system: CO[C@@]1(NC(=O)Cc2cccs2)C(=O)N2C(C(=O)O)=C(COC(N)=O)CS[C@@H]21; experiment: as §1
[5] = system: O=C(Cc1cccs1)N[C@@H]1C(=O)N2C(C(=O)[O-])=C(C[n+]3ccccc3)CS[C@H]12; experiment: as §1
[6] = system: CC1(C)S[C@@H]2[C@H](NC(=O)Cc3ccccc3)C(=O)N2[C@H]1C(=O)O; experiment: as §1
[7] = system: CCN1CCN(C(=O)N[C@@H](C(=O)N[C@@H]2C(=O)N3[C@@H]2SC(C)(C)[C@@H]3C(=O)O)c2ccccc2)C(=O)C1=O; experiment: as §1
[8] = system: CC(C)(O/N=C(\C(=O)N[C@@H]1C(=O)N2C(C(=O)[O-])=C(C[n+]3ccccc3)CS[C@H]12)c1csc(N)n1)C(=O)O; experiment: as §1
[9] = system: CO/N=C(\C(=O)N[C@@H]1C(=O)N2C(C(=O)O)=C(COC(C)=O)CS[C@H]12)c1csc(N)n1; experiment: (§2) Ratio of Kcat to Ki for Acinetobacter baumannii ADC-33 beta-lactamase
[10] = system: CO[C@@]1(NC(=O)Cc2cccs2)C(=O)N2C(C(=O)O)=C(COC(N)=O)CS[C@@H]21; experiment: as §2
[11] = system: CC1(C)S[C@@H]2[C@H](NC(=O)[C@H](N)c3ccccc3)C(=O)N2[C@H]1C(=O)O; experiment: (§3) Ratio of Kcat to Km for Acinetobacter baumannii ADC-33 beta-lactamase
[12] = system: CC(=O)OCC1=C(C(=O)O)N2C(=O)[C@@H](NC(=O)Cc3cccs3)[C@H]2SC1; experiment: as §3
[13] = system: CO/N=C(\C(=O)N[C@@H]1C(=O)N2C(C(=O)[O-])=C(C[n+]3cccc4c3CCC4)CS[C@H]12)c1csc(N)n1; experiment: as §3
[14] = system: O=C(Cc1cccs1)N[C@@H]1C(=O)N2C(C(=O)[O-])=C(C[n+]3ccccc3)CS[C@H]12; experiment: as §3
[15] = system: CC1(C)S[C@@H]2[C@H](NC(=O)Cc3ccccc3)C(=O)N2[C@H]1C(=O)O; experiment: as §3
[16] = system: CCN1CCN(C(=O)N[C@@H](C(=O)N[C@@H]2C(=O)N3[C@@H]2SC(C)(C)[C@@H]3C(=O)O)c2ccccc2)C(=O)C1=O; experiment: as §3
Acinetobacter baumannii [17] = experiment: Antimicrobial activity against Acinetobacter baumannii KI by Etest method; assay type: functional
Escherichia coli [18] = experiment: Antimicrobial activity against Escherichia coli TOP10 harboring pADC-33 plasmid with entire blaAmpC gene by Etest method; assay type: functional
Escherichia coli [19] = experiment: Antimicrobial activity against Escherichia coli TOP10 harboring pADC-11 plasmid with entire blaAmpC gene by Etest method; assay type: functional
Escherichia coli [20] = experiment: Antimicrobial activity against Escherichia coli TOP10 harboring pADC-11 plasmid carrying entire blaAmpC gene with alanine residue insertion at 215 position by Etest method; assay type: functional
Escherichia coli [21] = experiment: Antimicrobial activity against Escherichia coli TOP10 harboring pADC-11 plasmid by Etest method; assay type: functional
Acinetobacter baumannii [22] = experiment: Antimicrobial activity against Acinetobacter baumannii CIP70.10 by Etest method; assay type: functional
Acinetobacter baumannii [23] = experiment: Ratio of Kcat to Ki for Acinetobacter baumannii ADC-33 beta-lactamase to Kcat to Ki for Acinetobacter baumannii ADC-11 beta-lactamase
Escherichia coli [24] = experiment: Antimicrobial activity against Escherichia coli TOP10 harboring pADC-33 plasmid carrying entire blaAmpC gene with alanine residue deletion at 215 position and R210P substitution by Etest method; assay type: functional
Escherichia coli [25] = experiment: Antimicrobial activity against Escherichia coli TOP10 harboring pADC-33 plasmid by Etest method; assay type: functional
ADC-11 = ADC-11 (Acinetobacter baumannii, UniProt D6NSM8); experiment: Activity of Acinetobacter baumannii ADC-11 beta-lactamase
Escherichia coli [26] = experiment: Antimicrobial activity against Escherichia coli TOP10 harboring pADC-33 plasmid with entire blaAmpC gene with alanine residue deletion at 215 position by Etest method; assay type: functional
Beta-lactamase ADC-33 = Beta-lactamase ADC-33 (Acinetobacter baumannii, UniProt B2ZTR6); experiment: as §1
Escherichia coli [27] = experiment: Antimicrobial activity against Escherichia coli TOP10 harboring pADC-50 plasmid by Etest method; assay type: functional
Escherichia coli [28] = experiment: Antimicrobial activity against Escherichia coli TOP10 harboring pTOPO plasmid by Etest method; assay type: functional
Acinetobacter baumannii [29] = experiment: Antimicrobial activity against Acinetobacter baumannii AYE expressing VEB-1 gene by Etest method; assay type: functional
Escherichia coli [30] = experiment: Antimicrobial activity against Escherichia coli TOP10 harboring pADC-11 plasmid carrying entire blaAmpC gene with alanine residue insertion at 215 position and R210P substitution by Etest method; assay type: functional
Acinetobacter baumannii [31] = experiment: Ratio of Kcat to Km for Acinetobacter baumannii ADC-33 beta-lactamase to Kcat to Km for Acinetobacter baumannii ADC-11 beta-lactamase
Acinetobacter baumannii [32] = experiment: Antimicrobial activity against Acinetobacter baumannii beta-lactamase by Etest method; assay type: functional
Acinetobacter baumannii [33] = experiment: Antimicrobial activity against Acinetobacter baumannii expressing ESAC beta-lactamase by Etest method; assay type: functional
Escherichia coli [34] = experiment: Antimicrobial activity against Escherichia coli TOP10 harboring pADC-33 plasmid by Etest method in presence of clavulanic acid; assay type: functional
Escherichia coli [35] = experiment: Antimicrobial activity against Escherichia coli TOP10 harboring pADC-11 plasmid carrying entire blaAmpC gene with alanine residue deletion at 215 position and R210P substitution by Etest method in presence of clavulanic acid; assay type: functional
Escherichia coli [36] = experiment: Antimicrobial activity against Escherichia coli TOP10 harboring pADC-33 plasmid carrying entire blaAmpC gene with alanine residue deletion at 215 position by Etest method in presence of clavulanic acid; assay type: functional
Escherichia coli [37] = experiment: Antimicrobial activity against Escherichia coli TOP10 harboring pADC-11 plasmid by Etest method in presence of clavulanic acid; assay type: functional
Acinetobacter baumannii [38] = experiment: Antimicrobial activity against Acinetobacter baumannii AYE expressing VEB-1 gene by Etest method in presence of clavulanic acid; assay type: functional
Escherichia coli [39] = experiment: Antimicrobial activity against Escherichia coli TOP10 harboring pADC-11 plasmid carrying entire blaAmpC gene with alanine residue insertion at 215 position by Etest method in presence of clavulanic acid; assay type: functional
Acinetobacter baumannii [40] = experiment: Antimicrobial activity against Acinetobacter baumannii KI by Etest method in presence of clavulanic acid; assay type: functional
Escherichia coli [41] = experiment: Antimicrobial activity against Escherichia coli TOP10 harboring pADC-50 plasmid by Etest method in presence of clavulanic acid; assay type: functional
Escherichia coli [42] = experiment: Antimicrobial activity against Escherichia coli TOP10 harboring pADC-33 plasmid carrying entire blaAmpC gene by Etest method in presence of clavulanic acid; assay type: functional
Escherichia coli [43] = experiment: Antimicrobial activity against Escherichia coli TOP10 harboring pADC-11 plasmid carrying entire blaAmpC gene by Etest method in presence of clavulanic acid; assay type: functional
Escherichia coli [44] = experiment: Antimicrobial activity against Escherichia coli TOP10 harboring pADC-33 plasmid carrying entire blaAmpC gene with alanine residue deletion at 215 position and R210P substitution by Etest method in presence of clavulanic acid; assay type: functional
Acinetobacter baumannii [45] = experiment: Antimicrobial activity against Acinetobacter baumannii CIP70.10 by Etest method in presence of clavulanic acid; assay type: functional
Escherichia coli [46] = experiment: Antimicrobial activity against Escherichia coli TOP10 harboring pTOPO plasmid by Etest method in presence of clavulanic acid; assay type: functional

Beta-lactamase ADC-33 (Acinetobacter baumannii) (from UniProt B2ZTR6)
Km [1]: 9 µM | kcat [1]: 4 s⁻¹ | Km [2]: 120 µM | kcat [2]: 140 s⁻¹ | Km [3]: 700 µM | kcat [3]: 35 s⁻¹ | kcat [4]: 0.3 s⁻¹ | Km [5]: 100 µM | kcat [5]: 220 s⁻¹ | Km [6]: 3 µM | Km [7]: 16 µM | kcat [7]: 4 s⁻¹ | Km [8]: 30 µM | kcat [8]: 4 s⁻¹ | kcat/Km [9]: 2e+06 M⁻¹ s⁻¹ | kcat/Km [10]: 3e+06 M⁻¹ s⁻¹ | kcat/Km [11]: 500000 M⁻¹ s⁻¹ | kcat/Km [12]: 1e+06 M⁻¹ s⁻¹ | kcat/Km [13]: 50000 M⁻¹ s⁻¹ | kcat/Km [14]: 2e+06 M⁻¹ s⁻¹ | kcat/Km [15]: 5e+06 M⁻¹ s⁻¹ | kcat/Km [16]: 250000 M⁻¹ s⁻¹

CO/N=C(\C(=O)N[C@@H]1C(=O)N2C(C(=O)O)=C(COC(C)=O)CS[C@H]12)c1csc(N)n1 [CEFOTAXIME]
MIC (Acinetobacter baumannii [17]): > 256 µg/mL | MIC (Escherichia coli [18]): > 256 µg/mL | MIC (Escherichia coli [19]): 8 µg/mL (≈ 17.6 µM) | MIC (Escherichia coli [20]): 256 µg/mL (≈ 562 µM) | MIC (Escherichia coli [21]): 0.5 µg/mL (≈ 1.1 µM) | MIC (Acinetobacter baumannii [22]): 8 µg/mL (≈ 17.6 µM) | kcat/Km (Acinetobacter baumannii [23]): 2e+07 M⁻¹ s⁻¹ | MIC (Escherichia coli [24]): 8 µg/mL (≈ 17.6 µM) | MIC (Escherichia coli [25]): 128 µg/mL (≈ 281 µM) | Ki (ADC-11): 2500 nM | MIC (Escherichia coli [26]): 16 µg/mL (≈ 35.1 µM) | Ki (Beta-lactamase ADC-33): 500 nM | MIC (Escherichia coli [27]): 0.5 µg/mL (≈ 1.1 µM) | MIC (Escherichia coli [28]): 0.047 µg/mL (≈ 0.103 µM) | MIC (Acinetobacter baumannii [29]): > 256 µg/mL | MIC (Escherichia coli [30]): > 256 µg/mL

CO/N=C(\C(=O)N[C@@H]1C(=O)N2C(C(=O)[O-])=C(C[n+]3cccc4c3CCC4)CS[C@H]12)c1csc(N)n1 [CEFPIROME]
MIC (Acinetobacter baumannii [17]): > 256 µg/mL | kcat/Km (Acinetobacter baumannii [31]): 1.25e+07 M⁻¹ s⁻¹ | MIC (Escherichia coli [18]): 4 µg/mL (≈ 7.77 µM) | MIC (Escherichia coli [19]): 0.125 µg/mL (≈ 0.243 µM) | MIC (Escherichia coli [20]): 2 µg/mL (≈ 3.89 µM) | MIC (Escherichia coli [21]): 0.032 µg/mL (≈ 0.0622 µM) | MIC (Acinetobacter baumannii [22]): 2 µg/mL (≈ 3.89 µM) | MIC (Acinetobacter baumannii [32]): 4 µg/mL (≈ 7.77 µM) | MIC (Escherichia coli [24]): 0.125 µg/mL (≈ 0.243 µM) | MIC (Escherichia coli [25]): 0.5 µg/mL (≈ 0.972 µM) | MIC (Escherichia coli [26]): 0.5 µg/mL (≈ 0.972 µM) | MIC (Escherichia coli [27]): 0.047 µg/mL (≈ 0.0913 µM) | MIC (Escherichia coli [28]): 0.023 µg/mL (≈ 0.0447 µM) | MIC (Acinetobacter baumannii [29]): > 256 µg/mL | MIC (Acinetobacter baumannii [33]): 128 µg/mL (≈ 249 µM) | MIC (Escherichia coli [30]): 8 µg/mL (≈ 15.5 µM)

CC1(C)S[C@@H]2[C@H](NC(=O)[C@H](N)c3ccc(O)cc3)C(=O)N2[C@H]1C(=O)O [AMOXICILLIN]
MIC (Acinetobacter baumannii [17]): > 256 µg/mL | MIC (Escherichia coli [34]): > 256 µg/mL | MIC (Escherichia coli [18]): > 256 µg/mL | MIC (Escherichia coli [19]): > 256 µg/mL | MIC (Escherichia coli [20]): > 256 µg/mL | MIC (Escherichia coli [35]): 256 µg/mL | MIC (Escherichia coli [21]): > 256 µg/mL | MIC (Acinetobacter baumannii [22]): 32 µg/mL (≈ 87.6 µM) | MIC (Escherichia coli [36]): > 256 µg/mL | MIC (Escherichia coli [37]): 256 µg/mL | MIC (Escherichia coli [24]): > 256 µg/mL | MIC (Acinetobacter baumannii [38]): 128 µg/mL | MIC (Escherichia coli [25]): > 256 µg/mL | MIC (Escherichia coli [39]): > 256 µg/mL | MIC (Escherichia coli [26]): > 256 µg/mL | MIC (Acinetobacter baumannii [40]): 64 µg/mL | MIC (Escherichia coli [41]): 256 µg/mL | MIC (Escherichia coli [42]): > 256 µg/mL | MIC (Escherichia coli [43]): > 256 µg/mL | MIC (Escherichia coli [44]): 256 µg/mL | MIC (Escherichia coli [27]): 256 µg/mL (≈ 701 µM) | MIC (Escherichia coli [28]): 2 µg/mL (≈ 5.47 µM) | MIC (Acinetobacter baumannii [29]): > 256 µg/mL | MIC (Acinetobacter baumannii [45]): 16 µg/mL | MIC (Escherichia coli [46]): 2 µg/mL | MIC (Escherichia coli [30]): > 256 µg/mL

— ChEMBL document CHEMBL1649315, “Extended-spectrum cephalosporinase in Acinetobacter baumannii” (Antimicrob Agents Chemother, 2010)
